# Experimental data from patent US12252469B2, “Crystalline forms of (E)-N-hydroxy-3-(1-(phenylsulfonyl)indolin-5-yl)acrylamide” (ANBOGEN THERAPEUTICS INC., priority 2023, dated 2025).
# Legend:
# [1] = Heating experiment of Type A (XRPD); assay type: physicochemical
# [2] = Long-term stability test of Type A powder; assay type: physicochemical; conditions: 25±2° C./60±5% RH
# Description: Furthermore, a long-term stability test and an accelerated stability test of Type A (in the form of powder) are executed, and the results thereof are shown in Table 19 and Table 20, respectively. More specifically, for the long-term stability test, the packaging and storage condition: package in double PE bags with silica gel in an aluminum bag and in a paper drum; sample quantity: 0.6 g; temperature: 25±2° C.; % relative humidity: 60±5%; frequency of analysis: 0, 1, 2, 3, 6, 9, 12, 18, 24, 36, 48 and 60 months; duration: 60 months. As for the accelerated stability test, the packaging and storage condition: package in double PE bags with silica gel in an aluminum bag and in a paper drum; sample quantity: 0.6 g; temperature: 40±2° C.; % relative humidity: 75±5%; frequency of analysis: 0, 1, 2, 3 and 6 months; duration: 6 months.
compound,measurement,setting,value
"O=C(/C=C/c1ccc2c(c1)CCN2S(=O)(=O)c1ccccc1)NO [Type A, (E)-N-hydroxy-3-(1-(phenylsulfonyl)indolin-5-yl) acrylamide]",form after heating (XRPD),[1]; heated to 100° C. and cooled to RT,no form change
same,form after heating (XRPD),[1]; heated to 122° C./130° C. and cooled to RT,"converted to a new form, named as Type B"
same,Appearance,[2]; 0 months,Pale white powder
same,Assay (HPLC) (98.0%~102.0%) (anhydrous basis),[2]; 0 months,101.6%
same,Related substance (HPLC) ABT-301 dimer (NMT 0.5%),[2]; 0 months,0 a/a %
same,Related substance (HPLC) Individual unknown Impurity (NMT 0.4%),[2]; 0 months,0.03%
same,Related substance (HPLC) Total Impurities (NMT 1.0%),[2]; 0 months,0.1%
same,Water content (KF) (NMT 4.0%),[2]; 0 months,2.6%
same,Appearance,[2]; 1 month,Pale white powder
same,Assay (HPLC) (98.0%~102.0%) (anhydrous basis),[2]; 1 month,100.3%
same,Related substance (HPLC) ABT-301 dimer (NMT 0.5%),[2]; 1 month,0 a/a %
same,Related substance (HPLC) Individual unknown Impurity (NMT 0.4%),[2]; 1 month,0.05%
same,Related substance (HPLC) Total Impurities (NMT 1.0%),[2]; 1 month,0.1%
same,Water content (KF) (NMT 4.0%),[2]; 1 month,2.6%
same,Appearance,[2]; 2 months,Pale white powder
same,Assay (HPLC) (98.0%~102.0%) (anhydrous basis),[2]; 2 months,100.6%
same,Related substance (HPLC) ABT-301 dimer (NMT 0.5%),[2]; 2 months,0 a/a %
same,Related substance (HPLC) Individual unknown Impurity (NMT 0.4%),[2]; 2 months,0.05%
same,Related substance (HPLC) Total Impurities (NMT 1.0%),[2]; 2 months,0.1%
same,Water content (KF) (NMT 4.0%),[2]; 2 months,2.6%
same,Appearance,[2]; 3 months,Pale white powder
same,Assay (HPLC) (98.0%~102.0%) (anhydrous basis),[2]; 3 months,101.4%
same,Related substance (HPLC) ABT-301 dimer (NMT 0.5%),[2]; 3 months,0 a/a %
same,Related substance (HPLC) Individual unknown Impurity (NMT 0.4%),[2]; 3 months,0.07%
same,Related substance (HPLC) Total Impurities (NMT 1.0%),[2]; 3 months,0.1%
same,Water content (KF) (NMT 4.0%),[2]; 3 months,2.6%
same,Appearance,[2]; 6 months,Pale white powder
same,Assay (HPLC) (98.0%~102.0%) (anhydrous basis),[2]; 6 months,100.2%
same,Related substance (HPLC) ABT-301 dimer (NMT 0.5%),[2]; 6 months,0 a/a %
same,Related substance (HPLC) Individual unknown Impurity (NMT 0.4%),[2]; 6 months,0.05%
same,Related substance (HPLC) Total Impurities (NMT 1.0%),[2]; 6 months,0.1%
same,Water content (KF) (NMT 4.0%),[2]; 6 months,2.6%
same,Appearance,[2]; 9 months,Pale white powder
same,Assay (HPLC) (98.0%~102.0%) (anhydrous basis),[2]; 9 months,100.6%
same,Related substance (HPLC) ABT-301 dimer (NMT 0.5%),[2]; 9 months,0 a/a %
same,Related substance (HPLC) Individual unknown Impurity (NMT 0.4%),[2]; 9 months,0.06%
same,Related substance (HPLC) Total Impurities (NMT 1.0%),[2]; 9 months,0.1%
same,Water content (KF) (NMT 4.0%),[2]; 9 months,2.9%
same,Appearance,[2]; 12 months,Pale white powder
same,Assay (HPLC) (98.0%~102.0%) (anhydrous basis),[2]; 12 months,100.4%
same,Related substance (HPLC) ABT-301 dimer (NMT 0.5%),[2]; 12 months,0 a/a %
same,Related substance (HPLC) Individual unknown Impurity (NMT 0.4%),[2]; 12 months,0.09%
same,Related substance (HPLC) Total Impurities (NMT 1.0%),[2]; 12 months,0.2%
same,Water content (KF) (NMT 4.0%),[2]; 12 months,2.6%
same,Appearance,[2]; 18 months,Pale white powder
same,Assay (HPLC) (98.0%~102.0%) (anhydrous basis),[2]; 18 months,100.0%
same,Related substance (HPLC) ABT-301 dimer (NMT 0.5%),[2]; 18 months,0 a/a %
same,Related substance (HPLC) Individual unknown Impurity (NMT 0.4%),[2]; 18 months,0.07%
same,Related substance (HPLC) Total Impurities (NMT 1.0%),[2]; 18 months,0.1%
same,Water content (KF) (NMT 4.0%),[2]; 18 months,2.8%
same,Appearance,[2]; 24 months,Pale white powder
same,Assay (HPLC) (98.0%~102.0%) (anhydrous basis),[2]; 24 months,99.8%
same,Related substance (HPLC) ABT-301 dimer (NMT 0.5%),[2]; 24 months,0 a/a %
same,Related substance (HPLC) Individual unknown Impurity (NMT 0.4%),[2]; 24 months,0.03%
same,Related substance (HPLC) Total Impurities (NMT 1.0%),[2]; 24 months,0.1%
same,Water content (KF) (NMT 4.0%),[2]; 24 months,2.7%
same,Appearance,[2]; 36 months,Pale wlite powder
same,Assay (HPLC) (98.0%~102.0%) (anhydrous basis),[2]; 36 months,100.1%
same,Related substance (HPLC) ABT-301 dimer (NMT 0.5%),[2]; 36 months,0 a/a %
same,Related substance (HPLC) Individual unknown Impurity (NMT 0.4%),[2]; 36 months,0.08%
same,Related substance (HPLC) Total Impurities (NMT 1.0%),[2]; 36 months,0.1%
same,Water content (KF) (NMT 4.0%),[2]; 36 months,2.6%
same,Appearance,[2]; 48 months,Pale white powder
same,Assay (HPLC) (98.0%~102.0%) (anhydrous basis),[2]; 48 months,100.4%
same,Related substance (HPLC) ABT-301 dimer (NMT 0.5%),[2]; 48 months,0 a/a %
same,Related substance (HPLC) Individual unknown Impurity (NMT 0.4%),[2]; 48 months,0.08%
same,Related substance (HPLC) Total Impurities (NMT 1.0%),[2]; 48 months,0.1%
same,Water content (KF) (NMT 4.0%),[2]; 48 months,2.6%
same,Appearance,[2]; 60 months,Pale white powder
same,Assay (HPLC) (98.0%~102.0%) (anhydrous basis),[2]; 60 months,100.5%
same,Related substance (HPLC) Individual unknown Impurity (NMT 0.4%),[2]; 60 months,0.08%
same,Related substance (HPLC) Total Impurities (NMT 1.0%),[2]; 60 months,0.1%
same,Water content (KF) (NMT 4.0%),[2]; 60 months,2.6%
